Assay results taken from the supplement of paper PMC9663587.

Columns and labels:
Torin2 = compound: C1=CC(=CC(=C1)N2C(=O)C=CC3=CN=C4C=CC(=CC4=C32)C5=CN=C(C=C5)N)C(F)(F)F [Torin2]
R0-3306 = compound: C1=CC2=C(C=CC(=C2)C=C3C(=O)NC(=NCC4=CC=CS4)S3)N=C1 [R0-3306]
AZD1775 = compound: C=CCn1c(=O)c2cnc(Nc3ccc(N4CCN(C)CC4)cc3)nc2n1-c1cccc(C(C)(C)O)n1 [AZD1775]
[1] = compound: CC(=O)Nc1cccc(-n2c(=O)n(C3CC3)c(=O)c3c(Nc4ccc(I)cc4F)n(C)c(=O)c(C)c32)c1
Paclitaxel = compound: CC(=O)O[C@H]1C(=O)[C@@]2(C)[C@H]([C@H](OC(=O)c3ccccc3)[C@]3(O)C[C@H](OC(=O)[C@H](O)[C@@H](NC(=O)c4ccccc4)c4ccccc4)C(C)=C1C3(C)C)[C@]1(OC(C)=O)CO[C@@H]1C[C@@H]2O [Paclitaxel]
[2] = compound: CC(=O)c1c(C)c2cnc(Nc3ccc(N4CCNCC4)cn3)nc2n(C2CCCC2)c1=O
BVD523 = compound: CC(C)Nc1cc(-c2c[nH]c(C(=O)N[C@H](CO)c3cccc(Cl)c3)c2)c(Cl)cn1 [BVD523]
INK128/MLN0128 = compound: CC(C)n1nc(-c2ccc3oc(N)nc3c2)c2c(N)ncnc21 [INK128/MLN0128]
SHP099 = compound: CC1(CCN(CC1)C2=CN=C(C(=N2)N)C3=C(C(=CC=C3)Cl)Cl)N [SHP099]
[3] = compound: CCCCOc1c(C(=O)c2c(F)cc(C)cc2F)c[nH]c2nncc1-2
[4] = compound: CCN1CCN(Cc2ccc(Nc3ncc(F)c(-c4cc(F)c5nc(C)n(C(C)C)c5c4)n3)nc2)CC1
Luminespib/NVP-AUY922 = compound: CCNC(=O)c1noc(-c2cc(C(C)C)c(O)cc2O)c1-c1ccc(CN2CCOCC2)cc1 [Luminespib/NVP-AUY922]
Volasertib/BI6727 = compound: CC[C@@H]1C(=O)N(C)c2cnc(Nc3ccc(C(=O)N[C@H]4CC[C@H](N5CCN(CC6CC6)CC5)CC4)cc3OC)nc2N1C(C)C [Volasertib/BI6727]
[5] = compound: CCc1cnn2c(NCc3ccc[n+]([O-])c3)cc(N3CCCC[C@H]3CCO)nc12
LEE011/Ribociclib = compound: CN(C)C(=O)c1cc2cnc(Nc3ccc(N4CCNCC4)cn3)nc2n1C1CCCC1 [LEE011/Ribociclib]
THZ-P1-2 = compound: CN(C)C/C=C/C(=O)NC1=CC=C(C=C1)C(=O)NC2=CC=CC(=C2)NC3=NC=NC(=C3)C4=CNC5=CC=CC=C54 [THZ-P1-2]
THZ531 = compound: CN(C)C/C=C/C(=O)Nc1ccc(C(=O)N2CCC[C@@H](Nc3ncc(Cl)c(-c4c[nH]c5ccccc45)n3)C2)cc1 [THZ531]
senexin b = compound: CN1CCN(C(=O)c2ccc3cc(CCNc4ncnc5ccc(C#N)cc45)ccc3c2)CC1 [senexin b]
AZD2014 = compound: CNC(=O)c1cccc(-c2ccc3c(N4CCOC[C@@H]4C)nc(N4CCOC[C@@H]4C)nc3n2)c1 [AZD2014]
Cediranib/AZD2171 = compound: COc1cc2c(Oc3ccc4[nH]c(C)cc4c3F)ncnc2cc1OCCCN1CCCC1 [Cediranib/AZD2171]
Cabozantinib = compound: COc1cc2nccc(Oc3ccc(NC(=O)C4(C(=O)Nc5ccc(F)cc5)CC4)cc3)c2cc1OC [Cabozantinib]
Doxorubicin = compound: COc1cccc2c1C(=O)c1c(O)c3c(c(O)c1C2=O)C[C@@](O)(C(=O)CO)C[C@@H]3O[C@H]1C[C@H](N)[C@H](O)[C@H](C)O1 [Doxorubicin]
Pictilisib/GDC0941 = compound: CS(=O)(=O)N1CCN(Cc2cc3nc(-c4cccc5[nH]ncc45)nc(N4CCOCC4)c3s2)CC1 [Pictilisib/GDC0941]
AZD6738 = compound: C[C@@H]1COCCN1c1cc(C2([S@](C)(=N)=O)CC2)nc(-c2cc[nH]c3nccc2-3)n1 [AZD6738]
Taselisib/GDC0032 = compound: Cc1nc(-c2cn3c(n2)-c2ccc(-c4cnn(C(C)(C)C(N)=O)c4)cc2OCC3)n(C(C)C)n1 [Taselisib/GDC0032]
Alpelisib/BYL719 = compound: Cc1nc(NC(=O)N2CCC[C@H]2C(N)=O)sc1-c1ccnc(C(C)(C)C(F)(F)F)c1 [Alpelisib/BYL719]
Dasatinib = compound: Cc1nc(Nc2ncc(C(=O)Nc3c(C)cccc3Cl)s2)cc(N2CCN(CCO)CC2)n1 [Dasatinib]
[6] = compound: Cc1nn(C)c(COc2ccc(N3CCN(S(=O)(=O)N(C)C)CC3)cc2)c1-c1cccc2c(CCCOc3cccc4ccccc34)c(C(=O)O)n(CCN3CCOCC3)c12
AZD7762 = compound: NC(=O)Nc1cc(-c2cccc(F)c2)sc1C(=O)N[C@H]1CCCNC1 [AZD7762]
AZD5363 = compound: NC1(C(=O)N[C@@H](CCO)c2ccc(Cl)cc2)CCN(c2nc[nH]c3nccc2-3)CC1 [AZD5363]
Buparlisib/NVP-BKM120 = compound: Nc1cc(C(F)(F)F)c(-c2cc(N3CCOCC3)nc(N3CCOCC3)n2)cn1 [Buparlisib/NVP-BKM120]
Vorinostat = compound: O=C(CCCCCCC(=O)Nc1ccccc1)NO [Vorinostat]
Olaparib/AZD2281 = compound: O=C(c1cc(Cc2n[nH]c(=O)c3ccccc23)ccc1F)N1CCN(C(=O)C2CC2)CC1 [Olaparib/AZD2281]
Tivantinib/ARQ197 = compound: O=C1NC(=O)[C@@H](c2cn3c4c(cccc24)CCC3)[C@@H]1c1c[nH]c2ccccc12 [Tivantinib/ARQ197]
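Note: breast cancer and non-malignant breast epithelial cell lines, Deep Dye Drop or Dye Drop imaging, nine half-log doses, GR normalized to time-zero plates and DMSO-only controls.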

## T47D
Torin2
  GR50, 72 h: 0.00602 µM
R0-3306
  GR50, 72 h: 7.12 µM
AZD1775
  GR50, 72 h: 5.09 µM
[1]
  GR50, 72 h: > 1 µM
Paclitaxel
  GR50, 72 h: 0.00353 µM
[2]
  GR50, 72 h: 0.0275 µM
BVD523
  GR50, 72 h: 3.63 µM
INK128/MLN0128
  GR50, 72 h: 0.00526 µM
SHP099
  GR50, 72 h: > 10 µM
[3]
  GR50, 72 h: 0.0149 µM
[4]
  GR50, 72 h: 0.00428 µM
Luminespib/NVP-AUY922
  GR50, 72 h: 0.00607 µM
Volasertib/BI6727
  GR50, 72 h: 0.0315 µM
[5]
  GR50, 72 h: 0.0199 µM
LEE011/Ribociclib
  GR50, 72 h: 0.0057 µM
THZ-P1-2
  GR50, 72 h: 2.22 µM
THZ531
  GR50, 72 h: 0.114 µM
Senexin b
  GR50, 72 h: 1.28 µM
AZD2014
  GR50, 72 h: < 0.001 µM
Cediranib/AZD2171
  GR50, 72 h: 4.1 µM
Cabozantinib
  GR50, 72 h: 7.88 µM
Doxorubicin
  GR50, 72 h: 0.00189 µM
Pictilisib/GDC0941
  GR50, 72 h: 0.155 µM
AZD6738
  GR50, 72 h: > 10 µM
Taselisib/GDC0032
  GR50, 72 h: 0.00179 µM
Alpelisib/BYL719
  GR50, 72 h: 0.153 µM
Dasatinib
  GR50, 72 h: > 10 µM
[6]
  GR50, 72 h: > 10 µM
AZD7762
  GR50, 72 h: 2.37 µM
AZD5363
  GR50, 72 h: 0.0138 µM
Buparlisib/NVP-BKM120
  GR50, 72 h: 0.248 µM
Vorinostat
  GR50, 72 h: 1.83 µM
Olaparib/AZD2281
  GR50, 72 h: > 10 µM
Tivantinib/ARQ197
  GR50, 72 h: 0.346 µM

## ZR751
Torin2
  GR50, 72 h: 0.0172 µM
R0-3306
  GR50, 72 h: > 10 µM
AZD1775
  GR50, 72 h: 6.23 µM
[1]
  GR50, 72 h: 0.0293 µM
Paclitaxel
  GR50, 72 h: 0.0088 µM
[2]
  GR50, 72 h: > 3.16 µM
BVD523
  GR50, 72 h: > 10 µM
INK128/MLN0128
  GR50, 72 h: 0.00782 µM
SHP099
  GR50, 72 h: > 10 µM
[3]
  GR50, 72 h: > 10 µM
[4]
  GR50, 72 h: 0.0666 µM
Luminespib/NVP-AUY922
  GR50, 72 h: 0.0228 µM
Volasertib/BI6727
  GR50, 72 h: 0.115 µM
[5]
  GR50, 72 h: 0.035 µM
LEE011/Ribociclib
  GR50, 72 h: 5.42 µM
THZ-P1-2
  GR50, 72 h: 8.94 µM
THZ531
  GR50, 72 h: 0.427 µM
Senexin b
  GR50, 72 h: > 10 µM
AZD2014
  GR50, 72 h: < 0.001 µM
Cediranib/AZD2171
  GR50, 72 h: > 10 µM
Cabozantinib
  GR50, 72 h: > 10 µM
Doxorubicin
  GR50, 72 h: 0.0247 µM
Pictilisib/GDC0941
  GR50, 72 h: 0.672 µM
AZD6738
  GR50, 72 h: > 10 µM
Taselisib/GDC0032
  GR50, 72 h: 0.277 µM
Alpelisib/BYL719
  GR50, 72 h: > 10 µM
Dasatinib
  GR50, 72 h: 0.0343 µM
[6]
  GR50, 72 h: > 10 µM
AZD7762
  GR50, 72 h: 2.29 µM
AZD5363
  GR50, 72 h: > 10 µM
Buparlisib/NVP-BKM120
  GR50, 72 h: 1.15 µM
Vorinostat
  GR50, 72 h: 3.55 µM
Olaparib/AZD2281
  GR50, 72 h: > 10 µM
Tivantinib/ARQ197
  GR50, 72 h: 0.657 µM
